Test results: the supplement of paper PMC10307832

Key:
Assay in all cases: relative viability (nuclei count vs DMSO), 5 days (fraction); higher = more cells survive
NCI-H1437 = system: NCI-H1437
Outline: (§1)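 Relative viability equals treated-well nuclei counts divided by vehicle-well nuclei counts. Counts came from 4× images of lung cancer cell lines grown in 1536-well plates for 5 days after pin-tool dosing on the day after seeding. Dosing used one drug alone or a fixed anchor-drug dose plus five library-drug doses (not always all listed) in √10 steps, and values are medians of duplicate plates.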

NCI-H2087 = system: NCI-H2087
Outline: as §1

NCI-H650 = system: NCI-H650
Outline: as §1

PC-3 [JPC-3] = system: PC-3 [JPC-3]
Outline: as §1

LOU-NH91 = system: LOU-NH91
Outline: as §1

H3255 = system: H3255
Outline: as §1

201T = system: 201T
Outline: as §1

NCI-H647 = system: NCI-H647
Outline: as §1

LCLC-97TM1 = system: LCLC-97TM1
Outline: as §1

BEN = system: BEN
Outline: as §1

NCI-H1975 = system: NCI-H1975
Outline: as §1

EPLC-272H = system: EPLC-272H
Outline: as §1

SW 1573 = system: SW 1573
Outline: as §1

NCI-H2085 = system: NCI-H2085
Outline: as §1

EKVX = system: EKVX
Outline: as §1

NCI-H2342 = system: NCI-H2342
Outline: as §1

COR-L 105 = system: COR-L 105
Outline: as §1

NCI-H1666 = system: NCI-H1666
Outline: as §1

NCI-H2170 = system: NCI-H2170
Outline: as §1

LU99A = system: LU99A
Outline: as §1

HCC-827 = system: HCC-827
Outline: as §1

How did the relative viability (NCI-H1437; first compound 0.08 µM) turn out when `O=c1cc(-c2cccc3c2Sc2ccccc2S3)oc(N2CCOCC2)c1` + Cc1nc(Nc2ncc(C(=O)Nc3c(C)cccc3Cl)s2)cc(N2CCN(CCO)CC2)n1 [Dasatinib] (partner 0.075 µM) was run?
The relative viability was 0.435.

What about the relative viability (NCI-H1437; first compound 0.253 µM) of the same compound?
Its relative viability is 0.488.

What about the relative viability (NCI-H1437; first compound 0.8 µM) of the same compound?
Its relative viability is 0.401.

And the relative viability (NCI-H1437; first compound 2.53 µM)?
The relative viability was 0.339.

What about the relative viability (NCI-H1437; first compound 8 µM) of the same compound?
The relative viability was 0.423.

And the relative viability (NCI-H2087; first compound 0.08 µM)?
Its relative viability is 0.787.

What about the relative viability (NCI-H2087; first compound 0.253 µM) of the same compound?
Its relative viability is 0.936.

And the relative viability (NCI-H2087; first compound 0.8 µM)?
Its relative viability is 0.943.

What about the relative viability (NCI-H2087; first compound 2.53 µM) of the same compound?
Its relative viability is 0.919.

And the relative viability (NCI-H2087; first compound 8 µM)?
Its relative viability is 0.699.

What about the relative viability (NCI-H650; first compound 0.08 µM) of the same compound?
Its relative viability is 0.4.

What about the relative viability (NCI-H650; first compound 0.253 µM) of the same compound?
The relative viability was 0.412.

And the relative viability (NCI-H650; first compound 0.8 µM)?
The relative viability was 0.506.

What about the relative viability (NCI-H650; first compound 8 µM) of the same compound?
Its relative viability is 0.488.

What about the relative viability (PC-3 [JPC-3]; first compound 0.08 µM) of the same compound?
Its relative viability is 1.

What about the relative viability (PC-3 [JPC-3]; first compound 0.253 µM) of the same compound?
The relative viability was 0.949.

And the relative viability (PC-3 [JPC-3]; first compound 0.8 µM)?
Its relative viability is 1.07.

And the relative viability (PC-3 [JPC-3]; first compound 2.53 µM)?
The relative viability was 0.828.

What about the relative viability (PC-3 [JPC-3]; first compound 8 µM) of the same compound?
Its relative viability is 1.05.

What about the relative viability (LOU-NH91; first compound 0.08 µM) of the same compound?
Its relative viability is 0.589.

What about the relative viability (LOU-NH91; first compound 0.253 µM) of the same compound?
The relative viability was 0.558.

What about the relative viability (LOU-NH91; first compound 0.8 µM) of the same compound?
Its relative viability is 0.523.

And the relative viability (LOU-NH91; first compound 2.53 µM)?
Its relative viability is 0.519.

And the relative viability (LOU-NH91; first compound 8 µM)?
The relative viability was 0.559.

What about the relative viability (H3255; first compound 0.08 µM) of the same compound?
The relative viability was 0.334.

What about the relative viability (H3255; first compound 0.253 µM) of the same compound?
Its relative viability is 0.288.

And the relative viability (H3255; first compound 0.8 µM)?
Its relative viability is 0.363.

What about the relative viability (H3255; first compound 2.53 µM) of the same compound?
Its relative viability is 0.342.

What about the relative viability (H3255; first compound 8 µM) of the same compound?
Its relative viability is 0.556.

What about the relative viability (201T; first compound 0.08 µM) of the same compound?
Its relative viability is 0.637.

What about the relative viability (201T; first compound 0.253 µM) of the same compound?
The relative viability was 0.599.

And the relative viability (201T; first compound 0.8 µM)?
The relative viability was 0.355.

And the relative viability (201T; first compound 2.53 µM)?
Its relative viability is 0.521.

And the relative viability (201T; first compound 8 µM)?
Its relative viability is 0.654.

And the relative viability (NCI-H647; first compound 0.08 µM)?
The relative viability was 0.128.

What about the relative viability (NCI-H647; first compound 0.253 µM) of the same compound?
The relative viability was 0.205.

What about the relative viability (NCI-H647; first compound 0.8 µM) of the same compound?
The relative viability was 0.208.

And the relative viability (NCI-H647; first compound 2.53 µM)?
The relative viability was 0.123.

And the relative viability (NCI-H647; first compound 8 µM)?
The relative viability was 0.155.

What about the relative viability (LCLC-97TM1; first compound 0.08 µM) of the same compound?
The relative viability was 0.899.

What about the relative viability (LCLC-97TM1; first compound 0.253 µM) of the same compound?
The relative viability was 0.863.

And the relative viability (LCLC-97TM1; first compound 0.8 µM)?
The relative viability was 0.956.

What about the relative viability (LCLC-97TM1; first compound 2.53 µM) of the same compound?
Its relative viability is 0.749.

What about the relative viability (LCLC-97TM1; first compound 8 µM) of the same compound?
Its relative viability is 0.757.

What about the relative viability (BEN; first compound 0.08 µM) of the same compound?
Its relative viability is 0.284.

And the relative viability (BEN; first compound 0.253 µM)?
Its relative viability is 0.353.

What about the relative viability (BEN; first compound 0.8 µM) of the same compound?
The relative viability was 0.284.

And the relative viability (BEN; first compound 2.53 µM)?
The relative viability was 0.318.

And the relative viability (BEN; first compound 8 µM)?
The relative viability was 0.351.

What about the relative viability (NCI-H1975; first compound 0.08 µM) of the same compound?
The relative viability was 0.355.

And the relative viability (NCI-H1975; first compound 0.253 µM)?
The relative viability was 0.35.

What about the relative viability (NCI-H1975; first compound 0.8 µM) of the same compound?
Its relative viability is 0.219.

What about the relative viability (NCI-H1975; first compound 2.53 µM) of the same compound?
Its relative viability is 0.239.

What about the relative viability (NCI-H1975; first compound 8 µM) of the same compound?
Its relative viability is 0.326.

And the relative viability (EPLC-272H; first compound 0.08 µM)?
The relative viability was 0.331.

And the relative viability (EPLC-272H; first compound 0.253 µM)?
The relative viability was 0.397.

And the relative viability (EPLC-272H; first compound 0.8 µM)?
Its relative viability is 0.399.

What about the relative viability (EPLC-272H; first compound 2.53 µM) of the same compound?
The relative viability was 0.306.

What about the relative viability (EPLC-272H; first compound 8 µM) of the same compound?
The relative viability was 0.347.

And the relative viability (SW 1573; first compound 0.08 µM)?
Its relative viability is 0.417.

And the relative viability (SW 1573; first compound 0.253 µM)?
Its relative viability is 0.66.

And the relative viability (SW 1573; first compound 0.8 µM)?
Its relative viability is 0.706.

And the relative viability (SW 1573; first compound 2.53 µM)?
Its relative viability is 0.436.

And the relative viability (SW 1573; first compound 8 µM)?
The relative viability was 0.461.

What about the relative viability (NCI-H2085; first compound 0.08 µM) of the same compound?
The relative viability was 0.222.

What about the relative viability (NCI-H2085; first compound 0.253 µM) of the same compound?
The relative viability was 0.238.

And the relative viability (NCI-H2085; first compound 0.8 µM)?
Its relative viability is 0.225.

And the relative viability (NCI-H2085; first compound 2.53 µM)?
The relative viability was 0.241.

What about the relative viability (NCI-H2085; first compound 8 µM) of the same compound?
The relative viability was 0.236.

What about the relative viability (EKVX; first compound 0.08 µM) of the same compound?
Its relative viability is 0.605.

What about the relative viability (EKVX; first compound 0.253 µM) of the same compound?
Its relative viability is 0.517.

And the relative viability (EKVX; first compound 0.8 µM)?
Its relative viability is 0.315.

And the relative viability (EKVX; first compound 2.53 µM)?
Its relative viability is 0.501.

And the relative viability (EKVX; first compound 8 µM)?
The relative viability was 0.355.

What about the relative viability (NCI-H2342; first compound 0.08 µM) of the same compound?
Its relative viability is 0.312.

What about the relative viability (NCI-H2342; first compound 0.253 µM) of the same compound?
Its relative viability is 0.309.

And the relative viability (NCI-H2342; first compound 0.8 µM)?
The relative viability was 0.304.

And the relative viability (NCI-H2342; first compound 2.53 µM)?
Its relative viability is 0.262.

And the relative viability (NCI-H2342; first compound 8 µM)?
Its relative viability is 0.336.

And the relative viability (COR-L 105; first compound 0.08 µM)?
Its relative viability is 0.311.

What about the relative viability (COR-L 105; first compound 0.253 µM) of the same compound?
Its relative viability is 0.311.

What about the relative viability (COR-L 105; first compound 0.8 µM) of the same compound?
The relative viability was 0.326.

And the relative viability (COR-L 105; first compound 2.53 µM)?
Its relative viability is 0.356.

And the relative viability (COR-L 105; first compound 8 µM)?
The relative viability was 0.31.

What about the relative viability (NCI-H1666; first compound 0.08 µM) of the same compound?
Its relative viability is 0.787.

What about the relative viability (NCI-H1666; first compound 0.253 µM) of the same compound?
The relative viability was 0.781.

And the relative viability (NCI-H1666; first compound 0.8 µM)?
Its relative viability is 0.851.

And the relative viability (NCI-H1666; first compound 2.53 µM)?
The relative viability was 0.768.

And the relative viability (NCI-H1666; first compound 8 µM)?
The relative viability was 0.789.

And the relative viability (NCI-H2170; first compound 0.08 µM)?
The relative viability was 0.494.

What about the relative viability (NCI-H2170; first compound 0.253 µM) of the same compound?
Its relative viability is 0.571.

What about the relative viability (NCI-H2170; first compound 0.8 µM) of the same compound?
Its relative viability is 0.611.

What about the relative viability (NCI-H2170; first compound 2.53 µM) of the same compound?
Its relative viability is 0.477.

And the relative viability (NCI-H2170; first compound 8 µM)?
The relative viability was 0.564.

And the relative viability (LU99A; first compound 0.08 µM)?
The relative viability was 0.759.

What about the relative viability (LU99A; first compound 0.253 µM) of the same compound?
Its relative viability is 0.61.

What about the relative viability (LU99A; first compound 0.8 µM) of the same compound?
The relative viability was 0.587.

And the relative viability (LU99A; first compound 2.53 µM)?
The relative viability was 0.754.

And the relative viability (LU99A; first compound 8 µM)?
Its relative viability is 0.631.

What about the relative viability (HCC-827; first compound 0.08 µM) of the same compound?
The relative viability was 0.285.

And the relative viability (HCC-827; first compound 0.253 µM)?
Its relative viability is 0.297.

What about the relative viability (HCC-827; first compound 0.8 µM) of the same compound?
The relative viability was 0.37.

What about the relative viability (HCC-827; first compound 2.53 µM) of the same compound?
Its relative viability is 0.276.

And the relative viability (HCC-827; first compound 8 µM)?
The relative viability was 0.348.
